The target in one test is PARP14 (Homo sapiens, UniProt Q460N5). As to the kind of experiment: In vitro ADP-ribosylation assay, PARP14. It is filed as biochemical. The conditions noted are these: read-out: KM NAD+; PARP14 ART.
Test [1] concerns PARP1. The note with it: read-out: KM NAD+ (literature), cited from earlier work.
Another test deals with PARP2. The conditions noted are these: read-out: KM NAD+ (literature); PARP2 FL row; cited from earlier work.
The target of another test is T1, PARP10 (Homo sapiens, UniProt Q53GL7).
T1 sequence (Q53GL7 1-1025): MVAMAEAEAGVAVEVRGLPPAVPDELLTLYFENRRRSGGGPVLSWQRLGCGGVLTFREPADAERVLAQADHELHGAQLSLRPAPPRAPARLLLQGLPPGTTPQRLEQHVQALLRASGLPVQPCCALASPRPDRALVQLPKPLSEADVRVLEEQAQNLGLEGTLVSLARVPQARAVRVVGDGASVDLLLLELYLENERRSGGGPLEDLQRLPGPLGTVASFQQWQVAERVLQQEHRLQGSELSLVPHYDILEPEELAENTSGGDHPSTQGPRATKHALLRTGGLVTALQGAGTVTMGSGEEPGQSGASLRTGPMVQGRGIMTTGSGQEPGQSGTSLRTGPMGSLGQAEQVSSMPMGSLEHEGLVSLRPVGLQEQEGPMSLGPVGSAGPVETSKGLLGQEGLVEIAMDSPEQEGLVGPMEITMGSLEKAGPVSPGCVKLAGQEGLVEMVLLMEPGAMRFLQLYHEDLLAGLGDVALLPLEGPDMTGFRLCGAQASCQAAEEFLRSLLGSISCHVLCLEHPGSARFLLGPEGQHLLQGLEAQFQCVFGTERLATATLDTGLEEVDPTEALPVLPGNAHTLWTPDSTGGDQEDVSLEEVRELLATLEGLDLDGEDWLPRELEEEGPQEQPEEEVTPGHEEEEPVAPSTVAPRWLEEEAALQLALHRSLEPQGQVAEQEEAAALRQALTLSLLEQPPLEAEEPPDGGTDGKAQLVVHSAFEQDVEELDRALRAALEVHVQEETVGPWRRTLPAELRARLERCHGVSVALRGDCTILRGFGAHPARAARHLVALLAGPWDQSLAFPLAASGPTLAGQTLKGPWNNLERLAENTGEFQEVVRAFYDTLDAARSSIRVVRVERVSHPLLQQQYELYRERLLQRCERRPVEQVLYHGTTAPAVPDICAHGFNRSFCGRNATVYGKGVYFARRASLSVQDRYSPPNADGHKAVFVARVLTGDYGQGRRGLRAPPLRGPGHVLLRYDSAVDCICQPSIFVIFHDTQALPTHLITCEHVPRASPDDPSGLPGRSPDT
The note with it: read-out: KM NAD+ (literature); PARP10 FL row; cited from earlier work.

The target of another test is T2, PARP16 (Homo sapiens, UniProt Q8N5Y8).
T2 sequence (Q8N5Y8 1-322): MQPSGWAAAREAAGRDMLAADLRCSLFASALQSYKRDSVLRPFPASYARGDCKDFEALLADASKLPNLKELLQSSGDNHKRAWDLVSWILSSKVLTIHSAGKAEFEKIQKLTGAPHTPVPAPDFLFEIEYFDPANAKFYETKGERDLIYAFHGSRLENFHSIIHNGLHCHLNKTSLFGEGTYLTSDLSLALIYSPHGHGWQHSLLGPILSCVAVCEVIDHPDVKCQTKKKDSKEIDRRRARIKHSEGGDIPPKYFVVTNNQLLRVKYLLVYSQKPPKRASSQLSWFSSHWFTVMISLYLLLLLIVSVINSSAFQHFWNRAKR
The note with it: read-out: KM NAD+ (literature); PARP16 FL row; cited from earlier work.

The test system of test [2] is PARP1. As to the kind of experiment: In vitro ADP-ribosylation assay, PARP1. The conditions noted are these: selectivity toward PARP1 and -2 over other PARP family members. The format is biochemical, human.

Like-named read-outs stand apart in the source and are kept apart here.

This is an account of results in publication PMC5934274 (Journal of medicinal chemistry, 2016).

Chain of PARP14 (Q460N5 whole entry): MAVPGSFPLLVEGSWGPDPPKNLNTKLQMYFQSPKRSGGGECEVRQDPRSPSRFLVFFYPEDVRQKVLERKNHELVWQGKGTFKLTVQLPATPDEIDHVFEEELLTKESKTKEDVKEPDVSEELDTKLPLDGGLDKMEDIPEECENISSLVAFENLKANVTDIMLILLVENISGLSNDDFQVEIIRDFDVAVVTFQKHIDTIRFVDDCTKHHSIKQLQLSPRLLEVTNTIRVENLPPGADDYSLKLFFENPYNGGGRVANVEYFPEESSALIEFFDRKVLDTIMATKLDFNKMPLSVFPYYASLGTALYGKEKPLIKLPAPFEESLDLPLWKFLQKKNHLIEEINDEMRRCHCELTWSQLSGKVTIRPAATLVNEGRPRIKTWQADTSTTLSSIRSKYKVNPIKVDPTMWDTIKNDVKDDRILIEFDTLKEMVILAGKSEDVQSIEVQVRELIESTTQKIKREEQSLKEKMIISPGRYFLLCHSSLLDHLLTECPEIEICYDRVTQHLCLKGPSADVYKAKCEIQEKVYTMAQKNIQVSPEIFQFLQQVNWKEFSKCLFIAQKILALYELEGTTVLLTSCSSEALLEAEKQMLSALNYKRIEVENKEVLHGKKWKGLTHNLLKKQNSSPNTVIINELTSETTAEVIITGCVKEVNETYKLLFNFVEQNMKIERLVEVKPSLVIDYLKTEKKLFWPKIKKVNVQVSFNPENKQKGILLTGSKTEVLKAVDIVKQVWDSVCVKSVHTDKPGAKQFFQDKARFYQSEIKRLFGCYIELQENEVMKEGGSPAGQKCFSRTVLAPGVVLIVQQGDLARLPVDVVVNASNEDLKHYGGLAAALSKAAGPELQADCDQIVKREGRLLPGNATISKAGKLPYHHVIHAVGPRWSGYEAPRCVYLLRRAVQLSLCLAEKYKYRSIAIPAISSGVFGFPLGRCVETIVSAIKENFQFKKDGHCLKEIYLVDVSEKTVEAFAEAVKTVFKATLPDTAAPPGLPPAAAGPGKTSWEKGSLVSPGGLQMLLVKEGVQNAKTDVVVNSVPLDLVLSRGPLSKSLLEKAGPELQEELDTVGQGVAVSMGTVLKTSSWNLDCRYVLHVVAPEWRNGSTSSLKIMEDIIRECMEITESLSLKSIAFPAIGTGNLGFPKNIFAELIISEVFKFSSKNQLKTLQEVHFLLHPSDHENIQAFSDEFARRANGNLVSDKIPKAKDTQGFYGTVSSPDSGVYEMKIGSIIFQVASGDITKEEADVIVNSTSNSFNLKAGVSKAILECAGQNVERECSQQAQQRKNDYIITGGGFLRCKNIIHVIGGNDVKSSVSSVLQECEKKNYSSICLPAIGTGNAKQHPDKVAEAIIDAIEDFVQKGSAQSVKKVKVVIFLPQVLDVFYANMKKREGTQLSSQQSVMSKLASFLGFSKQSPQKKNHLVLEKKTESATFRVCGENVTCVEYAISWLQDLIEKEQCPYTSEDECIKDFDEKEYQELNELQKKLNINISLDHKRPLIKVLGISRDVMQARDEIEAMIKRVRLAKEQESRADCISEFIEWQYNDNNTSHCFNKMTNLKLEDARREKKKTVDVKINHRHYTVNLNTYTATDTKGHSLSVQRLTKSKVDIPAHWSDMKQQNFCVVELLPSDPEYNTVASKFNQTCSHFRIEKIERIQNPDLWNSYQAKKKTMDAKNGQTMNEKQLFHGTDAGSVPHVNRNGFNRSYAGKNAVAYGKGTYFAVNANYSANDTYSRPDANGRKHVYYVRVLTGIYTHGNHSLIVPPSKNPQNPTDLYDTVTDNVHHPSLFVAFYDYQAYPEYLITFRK

Consider `NC(=O)c1ccc[n+]([C@@H]2O[C@H](COP(=O)([O-])OP(=O)(O)OC[C@H]3O[C@@H](n4cnc5c(N)ncnc54)[C@H](O)[C@@H]3O)[C@@H](O)[C@H]2O)c1` [NAD+, nicotinamide adenine dinucleotide], for which the Km on PARP14 is 62 ± 7 µM; in the test with PARP1 [1] (PARP1 ART row), 30 to 130 µM; with PARP1 [1] (PARP1 FL row), 50 µM; in the test on PARP2, 130 µM; at PARP10 it was 50 µM; on PARP16 it was 280 µM.

`C[C@]1(c2nc3c(C(N)=O)cccc3[nH]2)CCCN1` [Veliparib]: the “IC50 values for PARP1 and -2 lower than those for other family members” value in the test with PARP1 [2] is above 100 fold.
